Test results: patent US5668161A, “Substituted thiazoles for the treatment of inflammation” (G.D. Searle & Co., priority 1996, dated 1997)

Columns and labels:
murine COX-I = molecular target: T1, murine COX-I (Mus musculus, UniProt P22437); assay: COX I activity in vitro, murine (PGE2 by ELISA)
T1 sequence (P22437 27-602): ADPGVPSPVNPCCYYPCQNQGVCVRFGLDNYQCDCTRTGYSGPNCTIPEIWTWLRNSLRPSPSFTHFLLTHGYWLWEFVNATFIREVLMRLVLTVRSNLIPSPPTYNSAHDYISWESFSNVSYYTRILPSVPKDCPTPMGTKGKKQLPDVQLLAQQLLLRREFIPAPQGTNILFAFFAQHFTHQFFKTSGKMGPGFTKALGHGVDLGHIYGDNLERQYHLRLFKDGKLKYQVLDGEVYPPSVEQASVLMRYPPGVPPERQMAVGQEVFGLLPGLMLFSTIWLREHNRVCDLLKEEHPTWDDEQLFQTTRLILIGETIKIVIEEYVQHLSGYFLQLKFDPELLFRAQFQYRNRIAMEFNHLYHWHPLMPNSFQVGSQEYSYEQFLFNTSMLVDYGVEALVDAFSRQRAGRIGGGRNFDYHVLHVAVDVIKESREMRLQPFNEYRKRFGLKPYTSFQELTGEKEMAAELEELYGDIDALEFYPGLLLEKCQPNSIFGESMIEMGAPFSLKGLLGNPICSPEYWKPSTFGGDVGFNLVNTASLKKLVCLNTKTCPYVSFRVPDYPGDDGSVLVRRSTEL

carrageenan foot edema = assay: Rat Carrageenan Foot Pad Edema Test; assay type: in vivo, rat (Male Sprague-Dawley); conditions: oral, 3 hours after carrageenan, read-out: RAT PAW EDEMA % Inhibition; for inhibition at 20 mg/kg: @ 20 mg/kg body weight
Method: Male Sprague-Dawley rats were selected in each group so that the average body weight was as close as possible. Rats were fasted with free access to water for over sixteen hours prior to the test. […] One hour later a subplantar injection of 0.1 mL of 1% solution of carrageenan/sterile 0.9% saline was administered and the volume of the injected foot was measured with a displacement plethysmometer connected to a pressure transducer with a digital indicator. Three hours after the injection of the carrageenan, the volume of the foot was again measured. […] Rat Carrageenan-induced Analgesia Test

murine COX-II = molecular target: T2, murine COX-II (Mus musculus, UniProt Q05769); assay: biochemical
T2 sequence (Q05769 18-604): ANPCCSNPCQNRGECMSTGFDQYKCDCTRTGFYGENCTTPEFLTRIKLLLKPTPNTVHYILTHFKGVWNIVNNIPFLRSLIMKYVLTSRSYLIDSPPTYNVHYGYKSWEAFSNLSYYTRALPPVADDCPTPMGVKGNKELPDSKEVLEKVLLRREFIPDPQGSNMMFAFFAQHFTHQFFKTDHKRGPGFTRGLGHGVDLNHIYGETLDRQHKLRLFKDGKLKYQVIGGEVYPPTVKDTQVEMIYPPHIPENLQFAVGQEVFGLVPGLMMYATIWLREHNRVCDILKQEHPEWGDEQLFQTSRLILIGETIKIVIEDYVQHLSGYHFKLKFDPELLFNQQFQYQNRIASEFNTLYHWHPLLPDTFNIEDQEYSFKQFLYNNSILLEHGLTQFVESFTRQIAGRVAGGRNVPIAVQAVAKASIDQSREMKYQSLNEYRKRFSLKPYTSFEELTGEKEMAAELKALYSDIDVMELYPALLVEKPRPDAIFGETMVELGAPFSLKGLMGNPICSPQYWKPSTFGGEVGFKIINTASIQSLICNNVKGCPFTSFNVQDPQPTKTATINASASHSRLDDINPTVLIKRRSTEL

Row | Structure (SMILES) | IC50 (murine COX-I) | IC50 (murine COX-II) | inhibition at 20 mg/kg (carrageenan foot edema) | inhibition at 10 mg/kg (carrageenan foot edema)
1 | CS(=O)(=O)c1ccc(-c2sc(-c3ccccc3Cl)nc2-c2ccccc2F)cc1 [Example 35, 2-(2-Chlorophenyl)-4-(2-fluorophenyl)-5-(4-methylsulfonylphenyl)thiazole] | > 100 µM | – | 16% | –
2 | Cc1nc(-c2ccc(F)cc2)c(-c2ccc(S(C)(=O)=O)cc2)s1 [Example 28, 4-(4-Fluorophenyl)-5-(4-methylsulfonylphenyl)-2-methylthiazole] | > 10 µM | < 0.1 µM | – | –
3 | CCCNc1nc(-c2ccc(F)cc2)c(-c2ccc(S(C)(=O)=O)cc2)s1 [Example 31, 4-(4-Fluorophenyl)-5-(4-methylsulfonylphenyl)-2-(1-propylamino)thiazole] | > 10 µM | 0.1 µM | – | 27.5%
4 | CS(=O)(=O)c1ccc(-c2sc(Cc3ccccc3)nc2-c2ccc(F)cc2)cc1 [Example 19, 2-Benzyl-4-(4-fluorophenyl)-5-(4-methylsulfonylphenyl)thiazole] | 0.4 µM | – | – | –
5 | CS(=O)(=O)c1ccc(-c2sc(CS(=O)(=O)c3cccs3)nc2-c2ccc(F)cc2)cc1 [Example 13] | > 30 µM | 1.2 µM | – | –
6 | CS(=O)(=O)c1ccc(-c2sc(-c3cccs3)nc2-c2ccc(F)cc2)cc1 [Example 24, 4-(4-Fluorophenyl)-5-(4-methylsulfonylphenyl)-2-(2-thienyl)thiazole] | > 10 µM | < 0.1 µM | – | 20%
7 | CS(=O)(=O)c1ccc(-c2sc(N3CCCCC3)nc2-c2ccc(F)cc2)cc1 [Example 30, 4-(4-Fluorophenyl)-5-(4-methylsulfonylphenyl)-2-(1-piperidinyl)thiazole] | 0.9 µM | 0.3 µM | – | –
8 | CCCCCCNc1nc(-c2ccc(F)cc2)c(-c2ccc(S(C)(=O)=O)cc2)s1 [Example 46, 4-(4-Fluorophenyl)-2-n-hexylamino-5-(4-methylsulfonylphenyl)thiazole] | 1.4 µM | < 0.1 µM | – | 25%
9 | CS(=O)(=O)c1ccc(-c2sc(-c3cccnc3)nc2-c2ccc(F)cc2)cc1 [Example 26, 4-(4-Fluorophenyl)-5-(4-methylsulfonylphenyl)-2-(3-pyridyl)thiazole] | > 100 µM | – | – | –
10 | CC(C)(C)c1nc(-c2ccc(F)cc2)c(-c2ccc(S(C)(=O)=O)cc2)s1 [Example 18, 2-(tert-Butyl)-4-(4-fluorophenyl)-5-(4-methylsulfonylphenyl)thiazole] | 5.4 µM | 0.15 µM | – | –
11 | CCOC(=O)c1nc(-c2ccc(F)cc2)c(-c2ccc(S(C)(=O)=O)cc2)s1 [Example 17, Ethyl [4-(4-fluorophenyl)-5-(4-methylsulfonylphenyl)-2-thiazolyl]carboxylate] | > 10 µM | 0.3 µM | – | –
12 | COc1ccc(-c2nc(-c3ccc(F)cc3)c(-c3ccc(S(C)(=O)=O)cc3)s2)cc1 [Example 49, 4-(4-Fluorophenyl)-5-(4-methylsulfonylphenyl)-2-(4-methoxyphenyl)thiazole] | > 10 µM | 0.3 µM | – | 6%
13 | CS(=O)(=O)c1ccc(-c2sc(-c3ccncc3)nc2-c2ccc(F)cc2)cc1 [Example 8, 4-(4-Fluorophenyl)-5-(4-methylsulfonylphenyl)-2-(4-pyridyl)thiazole] | > 100 µM | 0.2 µM | 12% | –
14 | CS(=O)(=O)c1ccc(-c2scnc2-c2ccc(F)cc2)cc1 [Example 22, 4-(4-Fluorophenyl)-5-(4-methylsulfonylphenyl)thiazole] | > 100 µM | 11.2 µM | – | –
15 | Cc1nc(-c2ccc(S(C)(=O)=O)cc2)c(-c2ccc(F)cc2)s1 [Example 20, 5-(4-Fluorophenyl)-4-(4-methylsulfonylphenyl)-2-methylthiazole] | > 10 µM | 0.1 µM | 48% | –
16 | CS(=O)(=O)c1ccc(-c2sc(CC#N)nc2-c2ccc(F)cc2)cc1 [Example 27, 2-(Cyanomethyl)-4-(4-fluorophenyl)-5-(4-methylsulfonylphenyl)thiazole] | > 10 µM | 0.2 µM | – | –

More lines, main results first:

Row | IC50 (murine COX-I) | IC50 (murine COX-II) | Structure (SMILES) | inhibition at 20 mg/kg (carrageenan foot edema) | inhibition at 10 mg/kg (carrageenan foot edema)
17 | 1.7 µM | – | CS(=O)(=O)c1ccc(-c2sc(CCc3ccccc3)nc2-c2ccc(F)cc2)cc1 [Example 44, 4-(4-Fluorophenyl)-5-(4-methylsulfonylphenyl)-2-(2-phenylethyl)thiazole] | – | –
18 | > 10 µM | 3.5 µM | CCOC(=O)c1ccc(Nc2nc(-c3ccc(F)cc3)c(-c3ccc(S(C)(=O)=O)cc3)s2)cc1 [Example 55, Ethyl [4-[4-(4-fluorophenyl)-5-(4-methylsulfonylphenyl)-2-thiazolyl]amino]benzoate] | – | –
19 | > 100 µM | 0.5 µM | CS(=O)(=O)c1ccc(-c2sc(Nc3cc(Cl)cc(Cl)c3)nc2-c2ccc(F)cc2)cc1 [Example 52, 2-(3,5-Dichlorophenylamino)-4-(4-fluorophenyl)-5-(4-methylsulfonylphenyl)thiazole] | – | 7%
20 | > 100 µM | < 0.1 µM | CS(=O)(=O)c1ccc(-c2sc(-c3ccccc3)nc2-c2ccc(F)cc2)cc1 [Example 45, 4-(4-Fluorophenyl)-5-(4-methylsulfonylphenyl)-2-phenylthiazole] | – | 19%
21 | 1.9 µM | < 0.1 µM | CCc1nc(-c2ccc(F)cc2)c(-c2ccc(S(C)(=O)=O)cc2)s1 [Example 42, 2-Ethyl-4-(4-fluorophenyl)-5-(4-methylsulfonylphenyl)thiazole] | – | –
22 | 100 µM | 1.3 µM | CS(=O)(=O)c1ccc(-c2sc(CCCc3ccccc3)nc2-c2ccc(F)cc2)cc1 [Example 43, 4-(4-Fluorophenyl)-5-(4-methylsulfonylphenyl)-2-(3-phenylpropyl)thiazole] | – | –
23 | 11.9 µM | 0.3 µM | CC(C)(C)Nc1nc(-c2ccc(F)cc2)c(-c2ccc(S(C)(=O)=O)cc2)s1 [Example 51, 2-tert-Butylamino-4-(4-fluorophenyl)-5-(4-methylsulfonylphenyl)thiazole] | – | 14%
24 | > 10 µM | 0.3 µM | CCNc1nc(-c2ccc(F)cc2)c(-c2ccc(S(C)(=O)=O)cc2)s1 [Example 50, 2-Ethylamino-4-(4-fluorophenyl)-5-(4-methylsulfonylphenyl)-thiazole] | – | 11%
25 | > 10 µM | 0.3 µM | CNc1nc(-c2ccc(F)cc2)c(-c2ccc(S(C)(=O)=O)cc2)s1 [Example 48, 4-(4-Fluorophenyl)-5-(4-methylsulfonylphenyl)-2-methylaminothiazole] | – | 15%
26 | 1.1 µM | 1.3 µM | CCOC(=O)c1cccc(Nc2nc(-c3ccc(F)cc3)c(-c3ccc(S(C)(=O)=O)cc3)s2)c1 [Example 54, Ethyl-[3-[4-(4-fluorophenyl)-5-(4-methylsulfonylphenyl)-2-thiazolyl]amino]benzoate] | – | –
27 | 1.4 µM | < 0.1 µM | CCCCNc1nc(-c2ccc(F)cc2)c(-c2ccc(S(C)(=O)=O)cc2)s1 [Example 47, 2-Butylamino-4-(4-fluorophenyl)-5-(4-methylsulfonylphenyl)thiazole] | 12% | –
28 | > 100 µM | < 0.1 µM | CS(=O)(=O)c1ccc(-c2sc(COc3cccc(Cl)c3)nc2-c2ccc(F)cc2)cc1 [Example 37, 2-((3-Chlorophenoxy)methyl)-4-(4-fluorophenyl)-5-(4-methylsulfonylphenyl)thiazole] | 9% | –
29 | 0.2 µM | 0.9 µM | CS(=O)(=O)c1ccc(-c2sc(Nc3ccc(C#N)cc3)nc2-c2ccc(F)cc2)cc1 [Example 53, 2-(4-Cyanophenylamino)-4-(4-fluorophenyl)-5-(4-methylsulfonylphenyl)-thiazole] | – | –
